Patent US12239643B2, “Therapeutic agent for inflammatory diseases, autoimmune diseases, fibrotic diseases, and cancer diseases” (MEIJI SEIKA PHARMA CO., LTD., priority 2018, dated 2025)
Like-named read-outs stand apart in the source and are kept apart here.

Experiments:
[1] = Hepatic metabolic stability (rat liver microsome method); type: in vitro ADME; conditions: rat liver microsomes 0.5 mg/mL, test substance 1 μM, NADPH 1 mM, 37° C., 30 minutes
How it was run: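 Scored by % parent left after 30 min (30 min/0 min ×100, LC-MS), banded A ≥75%, B 60–<75%, C 45–<60%, D <45%. Incubation: 1 μM compound, 0.5 mg/mL rat microsomes, pH 7.4 phosphate buffer, 37° C, 5 min preincubation, NADPH 1 mM started, acetonitrile quench.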

PDE4 = assay: Evaluation of PDE4 inhibitory activity, scintillation proximity assay; type: biochemical; conditions: scintillation proximity assay
How it was run: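 IC50 was derived from inhibition curves, referenced to an enzyme-free blank and a DMSO-only control. Compound, PDE4 preparation and tritiated cAMP reacted 120 min at RT in Tris-HCl buffer (pH 7.4) with MgCl2, EGTA and BSA; YSi-SPA beads with ZnSO4 bound product before scintillation counting.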

[2] = read-out: PDE4 Inhibitory Activity (Evaluation 1; concentration for the inhibition rate of 50%)

Row | SMILES | Residual ratio (% remaining for 30-minute reaction) [1] | IC50 (PDE4; class symbols of Evaluation 1, read-out: PDE4 Inhibitory Activity (concentration for the inhibition rate of 50%, IC50), Evaluation 1) [nM] | IC50 (PDE4; [2]) [nM]
1 | FC(F)(F)c1c(Cl)cc(-c2ccccn2)c2oc(N3CC4CCCC(C3)N4)nc12 [Example 12, 2-(3,9-Diazabicyclo[3.3.1]nonan-3-yl)-5-chloro-7-(pyridin-2-yl)-4-(trifluoromethyl)benzo[d]oxazole] | B (B: 60% or more and less than 75%) | < 100 | –
2 | c1csc(-c2ccc(O[C@H]3CCOC3)c3nc(N4CC5CC(C4)N5)oc23)n1 [Example 323, 2-(3,6-Diazabicyclo[3.1.1]heptan-3-yl)-4-(((S)-tetrahydrofuran-3-yl)oxy)-7-(thiazol-2-yl)benzo[d]oxazole] | B (B: 60% or more and less than 75%) | – | < 100
3 | C[S+]([O-])c1ccc(-c2nccs2)c2oc(N3CC4CC(C3)N4)nc12 (stereo not shown) [Example 346, 2-(3,6-Diazabicyclo[3.1.1]heptan-3-yl)-4-(methylsulfinyl)-7-(thiazol-2-yl)benzo[d]oxazole] | A (A: a % remaining rate of 75% or more) | – | < 100
4 | FC(F)(F)C(OCc1nnn[nH]1)c1ccc(-c2nccs2)c2oc(N3CC4CCC(C3)N4)nc12 (stereo not shown) [Example 230, 4-(1-((1H-tetrazol-5-yl)methoxy)-2,2,2-trifluoroethyl)-2-(3,8-diazabicyclo[3.2.1]octan-3-yl)-7-(thiazol-2-yl)benzo[d]oxazole] | A (A: a % remaining rate of 75% or more) | – | < 100
5 | OCC(F)(F)Oc1ccc(-c2ccc(F)cn2)c2oc(N3CC4CC(C3)N4)nc12 [Example 319, 2-((2-(3,6-Diazabicyclo[3.1.1]heptan-3-yl)-7-(5-fluoropyridin-2-yl)benzo[d]oxazol-4-yl)oxy)-2,2-difluoroethan-1-ol] | A (A: a % remaining rate of 75% or more) | – | < 100
6 | c1cc(-c2nccs2)c2oc(N3CC4CC(C3)N4)nc2c1 [Example 382, 2-(3,6-Diazabicyclo[3.1.1]heptan-3-yl)-7-(thiazol-2-yl)benzo[d]oxazole] | B (B: 60% or more and less than 75%) | – | < 100
7 | OCC(F)(F)Oc1ccc(-c2nccs2)c2oc(N3CC4CCC(C3)N4)nc12 [Example 404, 2-((2-(3,8-Diazabicyclo[3.2.1]octan-3-yl)-7-(thiazol-2-yl)benzo[d]oxazol-4-yl)oxy)-2,2-difluoroethan-1-ol] | B (B: 60% or more and less than 75%) | – | < 100
8 | CCNC(=O)c1ccc(-c2nccs2)c2oc(N3CC4CC(C3)N4)nc12 [Example 358, 2-(3,6-Diazabicyclo[3.1.1]heptan-3-yl)-N-ethyl-7-(thiazol-2-yl)benzo[d]oxazole-4-carboxamide] | A (A: a % remaining rate of 75% or more) | – | < 100
9 | c1csc(-c2ccc(N3CCOCC3)c3nc(N4CC5CC(C4)N5)oc23)n1 [Example 369, 2-(3,6-Diazabicyclo[3.1.1]heptan-3-yl)-4-morpholino-7-(thiazol-2-yl)benzo[d]oxazole] | B (B: 60% or more and less than 75%) | – | < 100
10 | OC1CCN(c2ccc(-c3nccs3)c3oc(N4CC5CC(C4)N5)nc23)CC1 [Example 397, 1-(2-(3,6-Diazabicyclo[3.1.1]heptan-3-yl)-7-(thiazol-2-yl)benzo[d]oxazol-4-yl)piperidin-4-ol] | A (A: a % remaining rate of 75% or more) | – | < 100
11 | O=C(c1ccc(-c2nccs2)c2oc(N3CC4CC(C3)N4)nc12)N1CCOCC1 [Example 359, (2-(3,6-Diazabicyclo[3.1.1]heptan-3-yl)-7-(thiazol-2-yl)benzo[d]oxazol-4-yl) (morpholino)methanone] | A (A: a % remaining rate of 75% or more) | – | 100 to 1000
12 | CC(C)(O)C(F)(F)Oc1ccc(-c2ccccn2)c2oc(N3CC4CCC(C3)N4)nc12 [Example 317, 1-((2-(3,8-Diazabicyclo[3.2.1]octan-3-yl)-7-(pyridin-2-yl)benzo[d]oxazol-4-yl)oxy)-1,1-difluoro-2-methylpropan-2-ol] | A (A: a % remaining rate of 75% or more) | – | < 100
13 | NC(=O)C(F)(F)Oc1ccc(-c2nccs2)c2oc(N3CC4CC(C3)N4)nc12 [Example 410, 2-((2-(3,6-Diazabicyclo[3.1.1]heptan-3-yl)-7-(thiazol-2-yl)benzo[d]oxazol-4-yl)oxy)-2,2-difluoroacetamide] | A (A: a % remaining rate of 75% or more) | – | < 100
14 | O=S(=O)(c1ccc(-c2nccs2)c2oc(N3CC4CC(C3)N4)nc12)N1CCOCC1 [Example 391, 2-(3,6-Diazabicyclo[3.1.1]heptan-3-yl)-4-(morpholinosulfonyl)-7-(thiazol-2-yl)benzo[d]oxazole] | B (B: 60% or more and less than 75%) | – | < 100
15 | C[C@@H](O)COc1ccc(-c2nccs2)c2oc(N3CC4CC(C3)N4)nc12 [Example 259, (2R)-1-((2-(3,6-diazabicyclo[3.1.1]heptan-3-yl)-7-(thiazol-2-yl)benzo[d]oxazol-4-yl)oxy)propan-2-ol] | A (A: a % remaining rate of 75% or more) | – | < 100
16 | COCCNC(=O)c1ccc(-c2nccs2)c2oc(N3CC4CC(C3)N4)nc12 [Example 353, 2-(3,6-Diazabicyclo[3.1.1]heptan-3-yl)-N-(2-methoxyethyl)-7-(thiazol-2-yl)benzo[d]oxazole-4-carboxamide] | A (A: a % remaining rate of 75% or more) | – | < 100
17 | CS(=O)(=O)c1ccc(-c2nccs2)c2oc(N3CC4CC(C3)N4)nc12 [Example 347, 2-(3,6-Diazabicyclo[3.1.1]heptan-3-yl)-4-(methylsulfonyl)-7-(thiazol-2-yl)benzo[d]oxazole] | A (A: a % remaining rate of 75% or more) | – | < 100
18 | CC(C)(O)C(F)(F)Oc1ccc(-n2cccn2)c2oc(N3CC4CCC(C3)N4)nc12 [Example 316, 1-((2-(3,8-Diazabicyclo[3.2.1]octan-3-yl)-7-(1H-pyrazol-1-yl)benzo[d]oxazol-4-yl)oxy)-1,1-difluoro-2-methylpropan-2-ol] | A (A: a % remaining rate of 75% or more) | – | < 100
19 | c1cnc(Oc2ccc(-c3nccs3)c3oc(N4CC5CC(C4)N5)nc23)cn1 [Example 339, 2-(3,6-Diazabicyclo[3.1.1]heptan-3-yl)-4-(pyrazin-2-yloxy)-7-(thiazol-2-yl)benzo[d]oxazole] | B (B: 60% or more and less than 75%) | – | < 100
20 | FC(F)(F)c1ccc(Oc2cc(-c3nccs3)c3oc(N4CC5CC(C4)N5)nc3c2)nc1 [Example 413, 2-(3,6-Diazabicyclo[3.1.1]heptan-3-yl)-7-(thiazol-2-yl)-5-((5-(trifluoromethyl)pyridin-2-yl)oxy)benzo[d]oxazole] | A (A: a % remaining rate of 75% or more) | – | < 100
